Tests used:
[1] = test system: repressed BLEC Jurkat clones; assay: Characterization of repressed BLEC Jurkat clones, relative repression of beta-lactamase; format: cell-based, human; settings: PHA 10 microgram/ml, CsA 100 nM, PMA 8 nM, Thaps 1 microM
From the text: These clones represent cells in which the BLEC trapping construct had integrated into a gene down regulated by PHA (T-cell) activation. Thus, these cells report the transcriptional repression of a gene upon cellular activation. Individual clones were identified and isolated by FACS using CCF2/AM to detect beta-lactamase activity using the following repressed sorting paradigm.
A first sort was used to isolate a population of cells that constitutively express beta-lactamase by identifying and isolating a population of blue cells from an unstimulated population of BLEC transfected Jurkat cells contacted with CCF2/AM. The sorted population of cells represented 2.89% of the unsorted population. These cells were cultured, divided into two pools, and stimulated with one of two different stimuli, either 10 micrograms/ml PHA for 18 hours, or 8 nM PMA and 1 microM Thapsigargin for 18 hours. These stimulated cells were contacted with CCF2 (loading in the presence of 400 PET (4% weight/volume) and Pluoronic 128 (100 micrograms/ml)) and the green cells in the population were sorted using FACS. The sorted population represented 8.41% of the cell population prior to the second sort. The third round of FACS was for single blue unstimulated cells. The population of cells obtained represented 18.2% of the cell population prior to the third sort.
This sorting procedure represents a 2,260-fold enrichment for PHA repressible clones. These clones have the beta-lactamase gene integrated into a gene that is down regulated by PHA stimulation of the cells. Six of 80 individual clones tested were repressed by PHA or PMA+Thapsigargin. All of these clones were confirmed to be independent integration events by genomic Southern analysis using a DNA probe encoding beta-lactamase.
Table 7 and Table 8 provide data similar to that provided in Table 5 for all of the clones obtained by the methods of Examples 5 to 7.

[2] = target: T1, M1 receptor (Homo sapiens, UniProt P11229); format: cell-based; settings: cell line J389PT14/pcDNA3-M1; 30 μM Carbachol, 10 nM PHA; 6 hours; unstimulated = 1
T1 construct: expressed in transfected cells; host or cells: Jurkat-derived BLEC clone J389PT14, transiently transfected by electroporation with pcDNA3-M1
T1 sequence (P11229 whole entry): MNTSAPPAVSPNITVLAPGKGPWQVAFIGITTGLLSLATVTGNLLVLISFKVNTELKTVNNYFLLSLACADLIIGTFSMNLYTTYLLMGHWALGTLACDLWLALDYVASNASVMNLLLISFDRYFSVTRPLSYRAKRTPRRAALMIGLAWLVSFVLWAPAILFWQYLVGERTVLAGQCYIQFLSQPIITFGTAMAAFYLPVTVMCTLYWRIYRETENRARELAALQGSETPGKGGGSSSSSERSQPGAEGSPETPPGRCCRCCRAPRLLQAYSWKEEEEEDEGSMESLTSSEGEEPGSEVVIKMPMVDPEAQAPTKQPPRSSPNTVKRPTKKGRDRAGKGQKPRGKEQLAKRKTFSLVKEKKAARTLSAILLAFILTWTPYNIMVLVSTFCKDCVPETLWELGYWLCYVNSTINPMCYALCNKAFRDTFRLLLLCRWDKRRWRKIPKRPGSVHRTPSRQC
Method: For example, a calcium-sensitive clone was transfected with a Gq-type GPCR by electroporation. Cells from clone J389PT14 were transfected by electroporation with a plasmid (pcDNA3 (Invitrogen) or pcDNA3-M1 (pcDNA3 that can operably express M1 receptor) to make cell lines J389PTI4/pcDNA3 and J389PTI4/pcDNA3-Ml). […] Thus, the J389PTI4/pcDNA3 cell is a control cell. […] These cells were contacted with CCF-2 dye for another 90 minutes. The 460/530 ratio changes were measured in a Cytoflour (Series 4000 Model) (Perceptive Biosystems) fluorescence plate reader and correspond to reporter gene expression.

In the case of phytohemaglutinin [PHA], the “Relative repression of beta-lactamase in the indicated clone by the following activator” value (from here on “Relative repression of beta-lactamase”) ([1]; clone 183/97pptr2) is reported as 10, the “Relative repression of beta-lactamase” value ([1]; clone J83/97pptr1) is reported as 90 and the “Relative repression of beta-lactamase” value ([1]; clone J83/97pptr3) is reported as 10. For the same substance, the “Relative repression of beta-lactamase” value ([1]; clone J83/97pptr4) was 60, the “Relative repression of beta-lactamase” value ([1]; clone J83/97pptr5) was 50 and the “Relative repression of beta-lactamase” value ([1]; clone J83/97pptr6) was 70. For the same substance, the “Relative expression of beta-lactamase in cells exposed to the indicated stimuli” value [2] was 13.

Reference: patent publication US20020025940A1, “Methods and compositions for sensitive and rapid, functional identification of genomic polynucleotides and use for cellular assays in drug discovery” (Aurora Biosciences Corporation, priority 1997, published 2002)
